# Test system: Daudi tumor cell line
# Assay: Cytotoxicity testing against Daudi cells (killing of 50% of the Daudi cells)
# Type: cell-based
# Details: 5E9 conjugate versus free agents, conjugate MSR=8.9, read-out: CC50 (concentration of platinum compound which killed 50% of the Daudi cells)
substance,measurement,value
ammino[4-succinimidyl -(5-aminopentan-2-one) terephthalic hydrazone] tetrachloro platinum (IV) [AAtC],CC50,2100 nM

# Reference: patent US5547982A, “Anti-tumor platinum complexes” (priority 1995, dated 1996)
